Measured values from article PMC2009384, “The carcinogenicity of polycyclic hydrocarbon epoxides in newborn mice” (British Journal of Cancer, 1975).

Tested on: newborn Swiss mice
Assay: Experiment I: carcinogenicity in newborn mice, benz(a)anthracene vs its K region epoxide (s.c. injection, tumour incidence to 70-75 weeks)
From the text: Br. J. Cancer (1975) 31, 182 THE CARCINOGENICITY OF POLYCYCLIC HYDROCARBON EPOXIDES IN NEWBORN MICE P. L. GROVER, P. SIMS, B. C. V. MITCHLEY AND F. J. C. ROE From the Chester Beatty Research Institute, Institute of Cancer Research, Royal Cancer Hospital, Fulham Road, London, SW3 6JB Received 9 August 1974. […] THE HYPOTHESIS that the carcino- genicity of polycyclic hydrocarbons is associated with the formation of epoxide metabolites (Grover, Hewer and Sims, 1971, 1972; Keysell et al., 1973) is sup- ported by some experimental evidence but remains unproven. […] The epoxides can also act as alkylating agents (Grover and Sims, 1970) and as mutagens (Ames, Sims and Grover, 1972; Huberman et al., 1971; Cookson, Sims and Grover, 1971; Fahmy and Fahmy, 1973). […] The newborn mouse, which is susceptible to carcinogenic polycyclic hydrocarbons (Roe, Rowson and Salaman, 1961; Roe, Mitchley and Walters, 1963; Walters and Roe, 1964, 1966) can be considered as a convenient source of several types of rapidly dividing cells. Consequently we have tested the K region epoxides derived from phenanthrene, benz(a)anthracene, 7-methylbenz(a)anthracene, dibenz(a,h)- anthracene, chrysene and 3-methylchol- anthrene, together with some of the CARCINOGENICITY OF POLYCYCLIC HYDROCARBON EPOXIDES IN MICE 183 parent hydrocarbons, for carcinogenicity using newborn mice. This paper presents the results that were obtained in these experiments. MATERIALS AND METHODS The polycyclic hydrocarbon epoxides, phenanthrene 9,10-oxide, benz(a)anthracene 5,6-oxide, 7-methylbenz(a)anthracene 5,6- oxide, dibenz(a,h)anthracene 5,6-oxide, chry- sene 5,6-oxide and 3-methylcholanthrene 11,12-oxide were prepared from the parent hydrocarbons (Newman and Blum, 1964; Boyland and Sims, 1965; Sims 1966). Two experiments were undertaken fol- lowing similar protocols. For each experi- ment Swiss mice from a specific pathogen- free colony were time mated so as to produce a large number of litters over the course of 2 or 3 days. […] Test compounds were suspended in poly- ethylene glycol (PEG) 400 and injections of 0-02 ml of the suspension were given by introducing a 25 gauge hypodermic needle through the skin near the root of the tail and threading it subcutaneously to deliver the injected material in the interscapular region. Injections were given to every mouse on the first day or first 3 days of life. The details of treatments and numbers of mice of each sex in each group are shown in Table I (Experiment I) and Table II (Ex- periment II). Surviving mice were weaned when they w ere 21 days old. Thereafter, males and females w ere separated and housed 6 per cage in metal boxes. A mixture of sawdust and wood shavings was used as bedding. The mice were fed on a standard cubed diet (Formulation 86 from C. Holdman and Sons (Plow co Feeds), Byers Lane, South Godstone, Surrey) and water was given ad libitum. Mice were inspected daily, and at weekly intervals they were weighed and palpated for tumours and other lesions. […] The experiment was terminated when surviving mice were between 70 and 75 weeks old. A full routine post- mortem examination, which included disten- sion of the urinary bladder with fixative, was carried out. The number of lesions thought to be neoplasms and the size of the largest such lesion in each organ affected were recorded. All tissues with suspected neoplasms were fixed in Bouin's solution. Haematoxylin and eosin stained 5 µm paraffin wax sections were prepared and examined microscopically. RESULTS The results of the two experiments in terms of tumour incidence are sum- marized in […].

[1] = females, 50 µg per treatment s.c. on Days 0, 1 and 2
[2] = females, 50 µg per treatment s.c. on Days 0, 1 and 2 in PEG 400
[3] = females, 100 µg per treatment s.c. on Days 0, 1 and 2
[4] = females, 100 µg per treatment s.c. on Days 0, 1 and 2 in PEG 400
[5] = females, 200 µg per treatment s.c. on Days 0, 1 and 2
[6] = females, 200 µg per treatment s.c. on Days 0, 1 and 2 in PEG 400
[7] = males, 50 µg per treatment s.c. on Days 0, 1 and 2
[8] = males, 50 µg per treatment s.c. on Days 0, 1 and 2 in PEG 400
[9] = males, 100 µg per treatment s.c. on Days 0, 1 and 2
[10] = males, 100 µg per treatment s.c. on Days 0, 1 and 2 in PEG 400
[11] = males, 200 µg per treatment s.c. on Days 0, 1 and 2
[12] = males, 200 µg per treatment s.c. on Days 0, 1 and 2 in PEG 400

c1ccc2c(c1)-c1cc3ccccc3cc1[C@H]1O[C@@H]21 [Benz(a)anthracene 5,6-oxide, benz(a)anthracene 5,6-oxide]
20: No. of survivors at 70 weeks [6]
less active than its parent compound: activity in increasing liver and lung tumour incidence compared with parent compound (parenteral administration during early neonatal life)
26: No. of survivors at 70 weeks [10]
16: No. of survivors at 70 weeks [2] | No. of survivors at 50 weeks [8] | No. of survivors at 70 weeks [8]
increase in incidence: incidence of liver tumours in males (2 higher levels (Groups D and E, 3 x 200 and 3 x 100 µg))
not very different from that in Group G: incidence of the 2 kinds of tumour (liver, lung) compared with vehicle group (lowest level of dosage, Group F, 3 x 50 µg)
8: No. of mice examined at p.m. at termination of experiment (70th-75th week) with multiple liver tumours [9]
22: No. of survivors at 70 weeks [4]
6: No. of mice examined at p.m. at termination of experiment (70th-75th week) with lung tumours [3]
18: No. of survivors at 50 weeks [2] | No. of survivors at 70 weeks [12]
3: No. of mice examined at p.m. at termination of experiment (70th-75th week) with lung tumours [9]
0: No. of mice examined at p.m. at termination of experiment (70th-75th week) with liver tumours [1] | No. of mice examined at p.m. at termination of experiment (70th-75th week) with multiple liver tumours [1] | No. of mice examined at p.m. at termination of experiment (70th-75th week) with multiple lung tumours [1] | No. of mice examined at p.m. from 50th-70th week with liver tumours [1] | No. of mice examined at p.m. from 50th-70th week with lung tumours [1] | No. of mice examined at p.m. at termination of experiment (70th-75th week) with liver tumours [3] | No. of mice examined at p.m. at termination of experiment (70th-75th week) with multiple liver tumours [3] | No. of mice examined at p.m. from 50th-70th week with liver tumours [3] | No. of mice examined at p.m. from 50th-70th week with lung tumours [3] | No. of mice examined at p.m. from 50th-70th week with other tumours [3] | No. of mice examined at p.m. at termination of experiment (70th-75th week) with multiple liver tumours [5] | No. of mice examined at p.m. at termination of experiment (70th-75th week) with multiple lung tumours [5] | No. of mice examined at p.m. at termination of experiment (70th-75th week) with other tumours [5] | No. of mice examined at p.m. from 50th-70th week with liver tumours [5] | No. of mice examined at p.m. from 50th-70th week with lung tumours [5] | No. of mice examined at p.m. from 50th-70th week with other tumours [5] | No. of mice examined at p.m. at termination of experiment (70th-75th week) with other tumours [7] | No. of mice examined at p.m. from 50th-70th week with liver tumours [7] | No. of mice examined at p.m. from 50th-70th week with lung tumours [7] | No. of mice examined at p.m. from 50th-70th week with other tumours [7] | No. of mice examined at p.m. at termination of experiment (70th-75th week) with multiple lung tumours [9] | No. of mice examined at p.m. at termination of experiment (70th-75th week) with other tumours [9] | No. of mice examined at p.m. from 50th-70th week with liver tumours [9] | No. of mice examined at p.m. from 50th-70th week with other tumours [9] | No. of mice examined at p.m. from 50th-70th week with lung tumours [11] | No. of mice examined at p.m. from 50th-70th week with other tumours [11]
5: No. of mice examined at p.m. at termination of experiment (70th-75th week) with multiple lung tumours [3] | No. of mice examined at p.m. at termination of experiment (70th-75th week) with lung tumours [7] | No. of mice examined at p.m. at termination of experiment (70th-75th week) with liver tumours [11]
24: No. of survivors at 50 weeks [4]
4: No. of mice examined at p.m. at termination of experiment (70th-75th week) with liver tumours [7] | No. of mice examined at p.m. at termination of experiment (70th-75th week) with multiple liver tumours [11]
2: No. of mice examined at p.m. at termination of experiment (70th-75th week) with lung tumours [1] | No. of mice examined at p.m. at termination of experiment (70th-75th week) with other tumours [1] | No. of mice examined at p.m. at termination of experiment (70th-75th week) with liver tumours [5] | No. of mice examined at p.m. at termination of experiment (70th-75th week) with lung tumours [11] | No. of mice examined at p.m. at termination of experiment (70th-75th week) with other tumours [11] | No. of mice examined at p.m. from 50th-70th week with liver tumours [11]
21: No. of survivors at 50 weeks [6] | No. of survivors at 50 weeks [12]
27: No. of survivors at 50 weeks [10]
1: No. of mice examined at p.m. from 50th-70th week with other tumours [1] | No. of mice examined at p.m. at termination of experiment (70th-75th week) with other tumours [3] | No. of mice examined at p.m. at termination of experiment (70th-75th week) with lung tumours [5] | No. of mice examined at p.m. at termination of experiment (70th-75th week) with multiple liver tumours [7] | No. of mice examined at p.m. at termination of experiment (70th-75th week) with multiple lung tumours [7] | No. of mice examined at p.m. from 50th-70th week with lung tumours [9] | No. of mice examined at p.m. at termination of experiment (70th-75th week) with multiple lung tumours [11]
12: No. of mice examined at p.m. at termination of experiment (70th-75th week) with liver tumours [9]
